Like-named read-outs stand apart in the source and are kept apart here.
How the values were obtained:
[1] = GC-MS headspace release profile of Tropical Fruit perfume in shampoo, 1/100 dilution in water; assay type: physicochemical
Protocol: A 10 gram sample of formulation and fragrance was added to an empty 1000 ml pyrex beaker. This beaker was then filled with 1000 ml of 120 F tap water. Beaker with diluted shampoo sample was then immediately placed into a semi-enclosed plexiglass chamber.
Headspace Sampling: Once beaker was placed into chamber a Carboxan SPME field fiber was held at the top-side opening of the chamber over the beaker containing the sample. […] […] Top of plexiglass chamber was held open for entire 5 minutes of headspace sampling.

[2] = in water, cited from earlier work

Row | Compound | GC Abundance ([1]; headspace at 10 seconds) | GC Abundance ([1]; headspace at 20 seconds) | GC Abundance ([1]; headspace at 30 seconds) | GC Abundance ([1]; headspace at 40 seconds) | GC Abundance ([1]; headspace at 50 seconds) | ODT (ppb) ([2]; Table 9) | ODT (ppb) ([2]; Table 11) | ODT (ppb) ([2]; Table 13) | exp ODT (ppb) water ([2]; experimental values from the Booleans database) [ppb]
1 | CC1=CC(C)C(C=O)CC1 (stereo not drawn) [TRIPLAL] | 1000 | 14000 | 14000 | 10000 | 6000 | less than 50 ppb | less than 50 ppb | less than 50 ppb | –
2 | CC(=O)OC1CCCCC1C(C)(C)C (stereo not drawn) [VERDOX] | – | 5000 | 14000 | 18000 | 20000 | less than 50 ppb | less than 50 ppb | less than 50 ppb | –
3 | CC=CC(=O)C1C(C)=CCCC1(C)C (stereo not drawn) [alpha-DAMASCONE, α-1-(2,6,6-Trimethyl-2-cyclohexen-1-yl)-2-buten-1-one] | – | – | – | 1000 | 5000 | – | – | – | 1.5
